Assay results from patent publication US7335674B2, “Benzothiazole-4,7-diones and benzoxazole-4,7-diones with substituents in position 5 or 6 and method for production thereof” (Societe de Conseils de Recherches et d'Applications …, priority 2003, dated 2008).

Legend:
[1] = test system: Mia-Paca2 (human pancreas cancer cells); test: Antiproliferative activity, WST1 colorimetric test, Mia-PaCa2; format: cell-based; settings: MIA PaCa-2, Mia-Paca2, treated 96 hours, up to 10 μM, read-out: IC50 on the cell proliferation of the Mia-Paca2 lines
Procedure: (§1) iii) Characterization of the Antiproliferative Activity:
(§2) By way of example, the effect of a treatment on two human cell lines Mia-Paca2 and DU145 by the compounds of the examples described previously will be studied. The cell lines DU145 (human prostate cancer cells) and Mia-PaCa2 (human pancreas cancer cells) were acquired from the American Tissue Culture Collection (Rockville, Md., USA). The cells placed in 80 μl of Dulbecco's Modified Eagle's medium (Gibco-Brl, Cergy-Pontoise, France) completed with 10% foetal calf serum inactivated by heating (Gibco-Brl, Cergy-Pontoise, France), 50,000 units/l of penicillin and 50 mg/l of streptomycin (Gibco-Brl, 10378-057, Cergy-Pontoise, France), and 2 mM of glutamine (Gibco-Brl, Cergy-Pontoise, France) were seeded on a 96-well plate on day 0. The cells were treated on day 1 for 96 hours with increasing concentrations of each of the compounds to be tested up to 10 μM. At the end of this period, quantification of cell proliferation is evaluated by a colorimetric test based on the cleavage of the tetrazolium salt WST1 by the mitochondrial dehydrogenases in viable cells leading to the formation of formazan (Boehringer Mannheim, Meylan, France). These tests are carried out in duplicate with 8 determinations per concentration tested. For each compound to be tested, the values included in the linear part of the sigmoid were retained for a linear regression analysis and used to estimate the inhibitory concentration IC50. The products are solubilized in dimethylsulphoxide (DMSO) at 10^−2 M and finally used in culture with 0.1% DMSO.

[2] = test system: DU145 (human prostate cancer cells); test: Antiproliferative activity, WST1 colorimetric test, DU145; format: cell-based; settings: DU-145, treated 96 hours, up to 10 μM, read-out: IC50 on the cell proliferation of the DU-145 lines
Procedure: as §1, §2

IC50 [1] [µM] | IC50 [2] [µM] | melting point [°C] | Compound
≤ 10 | ≤ 10 |  | CN(C)CCNC1=CC(=O)c2sc(-c3c(F)cccc3F)nc2C1=O [Example 1, 2-(2,6-difluorophenyl)-5-{[2-(dimethylamino)ethyl]amino}-1,3-benzothiazole-4,7-dione]
≤ 10 | ≤ 10 |  | CN(C)CCNC1=CC(=O)c2sc(-c3cc(Cl)sc3Cl)nc2C1=O [Example 2, 2-(2,5-dichlorothien-3-yl)-5-{1-[2-(dimethylamino)ethyl]amino}-1,3-benzothiazole-4,7-dione]
≤ 10 | ≤ 10 |  | O=C1C(NCCN2CCCC2)=CC(=O)c2sc(-c3cc(Cl)sc3Cl)nc21 [Example 3, 2-(2,5-dichlorothien-3-yl)-5-[(2-pyrrolidin-1-ylethyl)amino]-1,3-benzothiazole-4,7-dione]
≤ 10 | ≤ 10 |  | CN(C)CCNC1=CC(=O)c2sc(-c3ccc(F)cc3)nc2C1=O [Example 4, 5-{[2-(dimethylamino)ethyl]amino}-2-(4-fluorophenyl)-1,3-benzothiazole4,7-dione]
≤ 10 | ≤ 10 |  | O=C1C(NCCN2CCCC2)=CC(=O)c2sc(-c3ccc(F)cc3)nc21 [Example 5, 2-(4-fluorophenyl)-5-[(2-pyrrolidin-1-ylethyl)amino]-1,3-benzothiazole-4,7-dione]
≤ 10 | ≤ 10 |  | CN(C)CCNC1=CC(=O)c2sc(-c3c(F)cccc3Cl)nc2C1=O [Example 6, 2-(2-chloro-6-fluorophenyl)-5-{[2-(dimethylamino)ethyl]amino}-1,3-benzothiazole4,7-dione]
≤ 10 | ≤ 10 |  | O=C1C(NCCN2CCCC2)=CC(=O)c2sc(-c3c(F)cccc3Cl)nc21 [Example 7, 2-(2-chloro-6-fluorophenyl)-5-[(2-pyrrolidin-1-ylethyl)amino]-1,3-benzothiazole-4,7-dione]
≤ 10 | ≤ 10 | 246 to 247 | CN(C)CCNC1=CC(=O)c2nc(-c3ccc(F)cc3)sc2C1=O [Example 8, 6-{[2-(dimethylamino)ethyl]amino}-2-(4-fluorophenyl)-1,3-benzothiazole4,7-dione]
≤ 10 | ≤ 10 | 172 to 173 | CN(C)CCNC1=CC(=O)c2nc(-c3cccc4ccccc34)sc2C1=O [Example 9, 6-{[2-(dimethylamino)ethyl]amino}-2-(1-naphthyl)-1,3-benzothiazole-4,7-dione]
≤ 10 | ≤ 10 | 194 to 195 | CN(C)CCNC1=CC(=O)c2nc(-c3ccc(-c4ccccc4)cc3)sc2C1=O [Example 10, 2-(1,1′-biphenyl-4-yl)-6-{[2-(dimethylamino)ethyl]amino}-1,3-benzothiazole-4,7-dione]
≤ 10 | ≤ 10 | 126 to 127 | CCCCc1ccc(-c2nc3c(s2)C(=O)C(NCCN(C)C)=CC3=O)cc1 [Example 11, 2-(4-butylphenyl)-6-{[2-(dimethylamino)ethyl]amino}-1,3-benzothiazole-4,7-dione]
≤ 10 | ≤ 10 |  | CN(C)CCNC1=CC(=O)c2nc(-c3c(F)cccc3Cl)sc2C1=O [Example 12, 2-(2-chloro-6fluorophenyl)-6-{[2-(dimethylamino)ethyl]amino}-1,3-benzothiazole-4,7-dione]
≤ 10 | ≤ 10 | 167 to 168 | CN(C)CCNC1=CC(=O)c2nc(-c3ccc4ccccc4c3)sc2C1=O [Example 13, 6-{[2-(dimethylamino)ethyl]amino}-2-(2-naphthyl)-1,3-benzothiazole-4,7-dione]
≤ 10 | ≤ 10 |  | CN(C)CCNC1=CC(=O)c2nc(-c3cc(F)ccc3F)sc2C1=O [Example 14, 2-(2,5-difluorophenyl)-6-{[2-(dimethylamino)ethyl]amino}-1,3-benzothiazole-4,7-dione]
≤ 10 | ≤ 10 | 181 to 182 | CN(C)CCNC1=CC(=O)c2oc(-c3cc(F)ccc3F)nc2C1=O [Example 15, 2-(2,5-difluorophenyl)-5-{[2-(dimethylamino)ethyl]amino}-1,3-benzoxazole-4,7-dione]
≤ 10 | ≤ 10 | 153 to 154 | CN(C)CCNC1=CC(=O)c2oc(-c3ccccc3Br)nc2C1=O [Example 16, 2-(2-bromophenyl)-5-{[2-(dimethylamino)ethyl]amino}-1,3-benzoxazole4,7-dione]
≤ 10 | ≤ 10 | 187 to 188 | CN(C)CCNC1=CC(=O)c2oc(-c3cccc(Br)c3)nc2C1=O [Example 17, 2-(3-bromophenyl)-5-{[2-(dimethylamino)ethyl]amino}-1,3-benzoxazole-4,7-dione]
≤ 10 | ≤ 10 | 181 to 182 | CN(C)CCNC1=CC(=O)c2oc(-c3ccc(F)cc3)nc2C1=O [Example 18, 5-{[2-(dimethylamino)ethyl]amino}-2-(4-fluorophenyl)-1,3-benzoxazole-4,7-dione]
≤ 10 | ≤ 10 | 187 to 188 | CN(C)CCNC1=CC(=O)c2oc(-c3cc(F)cc(F)c3)nc2C1=O [Example 19, 2-(3,5-difluorophenyl)-5-{[2-(dimethylamino)ethyl]amino}-1,3-benzoxazole-4,7-dione]
≤ 10 | ≤ 10 | 178 to 179 | CN(C)CCNC1=CC(=O)c2oc(-c3cccc(F)c3F)nc2C1=O [Example 20, 2-(2,3-difluorophenyl)-5-{[2-(dimethylamino)ethyl]amino}-1,3-benzoxazole-4,7-dione]
≤ 10 | ≤ 10 |  | CN(C)CCNC1=CC(=O)c2oc(-c3cc(F)c(F)c(F)c3)nc2C1=O [Example 21, 5-{[2-(dimethylamino)ethyl]amino}-2-(3,4,5-trifluorophenyl)-1,3-benzoxazole4,7-dione]
≤ 10 | ≤ 10 |  | CN(C)CCNC1=CC(=O)c2nc(-c3cc(F)ccc3F)oc2C1=O [Example 27, 2-(2,5-difluorophenyl)-6-{[2-(dimethylamino)ethyl]amino}-1,3-benzoxazole-4,7-dione]
≤ 10 | ≤ 10 |  | COc1cc(-c2nc3c(o2)C(=O)C(NCCN(C)C)=CC3=O)cc(OC)c1OC [Example 40, 6-{[2-(dimethylamino)ethyl]amino}-2-(3,4,5-trimethoxyphenyl)-1,3-benzoxazole-4,7-dione]
≤ 10 | ≤ 10 |  | CCc1ccc(-c2nc3c(o2)C(=O)C(NCCN2CCCC2)=CC3=O)cc1 [Example 54, 2-(4-ethylphenyl)-6-[(2-pyrrolidin-1-ylethyl)amino]-1,3-benzoxazole-4,7-dione]
≤ 10 | ≤ 10 |  | COc1cc(-c2nc3c(o2)C(=O)C(NCCN2CCCC2)=CC3=O)cc(OC)c1OC [Example 56, 6-[(2-pyrrolidin-1-ylethyl)amino]-2-(3,4,5-trimethoxyphenyl)-1,3-benzoxazole-4,7-dione]
≤ 10 | ≤ 10 |  | CCCCCCc1nc2c(s1)C(=O)C(NCCN(C)C)=CC2=O [Example 60, 6-{[2-(dimethylamino)ethyl]amino}-2-hexyl-1,3-benzothiazole-4,7-dione]
